# Results from patent publication US12053458B2, “Treating sickle cell disease with a pyruvate kinase R activating compound” (Novo Nordisk Health Care AG, priority 2018, dated 2024).
# Where “and” joins values, the source holds several entries; their conditions need not be identical. Equal entries are not always repeated.
# How the values were obtained:
# PKR-R510Q [1] = molecular target: T1, PKR-R510Q (Homo sapiens, UniProt P30613, R510Q); experiment: Enzyme assay: activation (rate of ATP formation) by different concentrations, PKR-R510Q; format: biochemical; details: PEP at or below Km
# healthy volunteers [2] = experiment: Phase 1 single ascending dose (SAD) cohorts; format: in vivo, human
# From the text: (§1) This is a first-in-human (FIH), Phase 1 study of Compound 1 that will characterize the safety, PK, and PD of Compound 1 after a single dose and after repeated dosing first in healthy adult volunteers and then in adolescents or adults with sickle cell disease. Initially, a dose range of Compound 1 in single ascending dose (SAD) escalation cohorts will be explored in healthy subjects. Enrollment of healthy subjects into 2-week multiple ascending dose (MAD) escalation cohorts will be initiated once the safety and PK from at least two SAD cohorts is available to inform the doses for the 2-week MAD portion of the study. The MAD cohorts will then run in parallel to the single dose cohorts. A single dose cohort is planned to understand food effects (FE) on the PK of Compound 1. […] Multiple dose studies in SCD subjects will then be initiated upon completion of MAD studies in healthy volunteers. Compound 1 will be administered in 25 mg and 100 mg tablets delivered orally.
# (§2) Four healthy SAD cohorts were evaluated at doses of 200, 400, 700, and 1000 mg, and four healthy MAD cohorts received 200 to 600 mg total daily doses for 14 days at QD or BID dosing (100 mg BID, 200 mg BID, 300 mg BID, and 400 mg QD). In the food effect (FE) cohort, 10 healthy subjects received 200 mg of Compound 1 QD with and without food.
# In the SAD cohorts, the subjects' blood 2,3-DPG levels were measured periodically after dosing by a qualified LC-MS/MS method for the quantitation of 2,3-DPG in blood. Decreased 2,3-DPG blood levels were observed 6 hours following a single dose of Compound 1 at all dose levels (earlier timepoints were not collected). Maximum decreases in 2,3-DPG levels generally occurred ˜24 hours after the first dose with the reduction sustained ˜48-72 hr postdose. Table 14 reports the median percentage change in 2,3-DPG blood levels, relative to baseline, measured over time in healthy volunteers after a single dose of Compound 1 (200 mg, 400 mg, 700 mg, or 1000 mg) or placebo. Accordingly, the median reduction in the concentration of 2,3-DPG, relative to baseline, was at least about 30% at all dose levels tested 24 hours after administration of the single dose.
# In the SAD cohorts, the subjects' P50 (PO2 at 50% hemoglobin saturation) were determined 24-hours post-dose. P50 measured 24 hours after a single dose of Compound 1 were reduced at all dose levels tested (median reduction ranged from ˜3-5 mmHg). Table 15 reports the mean absolute change in P50, relative to baseline, measured 24 hours after a single dose of Compound 1 (200 mg, 400 mg, 700 mg, or 1000 mg) or placebo in healthy volunteers.
# (§3) The following procedures are employed for the analysis of ATP and 2,3-DPG in human whole blood K2EDTA using a protein precipitation extraction procedure and analysis by LC-MS/MS.
# wt-PKR [3] = molecular target: T2, wt-PKR (Homo sapiens, UniProt P30613); experiment: Enzyme assay: activation (rate of ATP formation) by different concentrations, wt-PKR; format: biochemical; details: PEP at or below Km
# PKR-R510Q [4] = molecular target: T1, PKR-R510Q; experiment: Luminescence Assay (Kinase Glo Plus), PKR(R510Q); format: biochemical; details: 100 μM PEP, 100 μM ADP, read-out: AC50 (PKRR510Q)
# Experimental: For each tested compound, the ability to activate PKR was determined using the following Luminescence Assay. The effect of phosphorylation of adenosine-5′-diphosphate (ADP) by PKR is determined by the Kinase Glo Plus Assay (Promega) in the presence or absence of FBP (D-fructose-1,6-diphosphate; BOC Sciences, CAS: 81028-91-3) as follows. Unless otherwise indicated, all reagents are purchased from Sigma-Aldrich. All reagents are prepared in buffer containing 50 mM Tris-HCl, 100 mM KCl, 5 mM MgCl2, and 0.01% Triton X100, 0.03% BSA, and 1 mM DTT. Enzyme and PEP (phosphoenolpyruvate) are added at 2× to all wells of an assay-ready plate containing serial dilutions of test compounds or DMSO vehicle. Final enzyme concentrations for PKR(wt), PKR(R510Q), and PKR(G332S) are 0.8 nM, 0.8 nM, and 10 nM respectively. Final PEP concentration is 100 μM. The Enzyme/PEP mixture is incubated with compounds for 30 minutes at RT before the assay is initiated with the addition of 2×ADP and KinaseGloPlus. Final concentration of ADP is 100 μM. […] For assays containing FBP, that reagent is added at 30 μM upon reaction initiation. Reactions are allowed to progress for 45 minutes at RT until luminescence is recorded by the BMG PHERAstar FS Multilabel Reader. The compound is tested in triplicate at concentrations ranging from 42.5 μM to 2.2 nM in 0.83% DMSO. […]
# Balb/c mice = experiment: PK/PD studies in wild type Balb/c mice, oral gavage QD×7; format: in vivo
# Experimental: Two pharmacokinetic (PK)/phamacodynamic (PD) studies were conducted in Balb/c mice that were administered Compound 1 once daily by oral gavage (formulated in 10% Cremophor EL/10% PG/80% DI water) for 7 days (QD×7) at doses of 0 (vehicle), 3.75, 7.5, 15, 30, 60 mg/kg (Study 1); 0 (vehicle), 7.5, 15, 30, 60, 120, or 240 mg/kg (Study 2). On the 7th day, whole blood was collected 24 hours after dosing and snap frozen. Samples were later thawed and analyzed by LC/MS for 2,3-DPG and ATP levels.
# Berkeley SS mouse = Berkeley SS mouse model of SCD, 7 days in chow; format: in vivo; details: 1000 ppm in chow
# From the text: Targeted gene deletions and a human transgene in the Berkeley SS mouse model result in mice that express human HgbS almost exclusively (Pászty C. Transgenic and gene knock-out mouse models of sickle cell anemia and the thalassemias. Curr Opin Hematol. 1997 March; 4(2):88-93) and mimic the genetic, hematologic, and histopathologic features of SCD in humans. These include irreversibly sickled RBCs, anemia, and multi-organ pathology.
# The effects of Compound 1 on Hgb affinity for oxygen, percentage of sickled cells, and/or Hgb were evaluated in the Berkley SS mouse. Two studies were conducted where mice received 0 or 1000 ppm Compound 1 ad libitum in mouse chow for 7 days. Blood was drawn on Day 7 and analyzed under hypoxic conditions. Red cell parameters were measured by ADVIA.
# PKR = molecular target: T3, PKR (Mus musculus, UniProt P53657); experiment: PKR activation in mouse red blood cells; format: cell-based; details: mouse RBCs
# T3 construct: Mouse RBCs were isolated fresh from whole blood using a Ficoll gradient; endogenous in cells; host or cells: freshly isolated mouse red blood cells
# Experimental: (§4) The activation of wt-PKR by Compound 1 in mature human erythrocytes ex vivo was evaluated in purified RBCs purchased from Research Blood Components. Cells treated with Compound 1 for 3 hr in glucose-containing media were washed, lysed, and assayed using a Biovision Pyruvate Kinase Assay (K709-100). The assay was repeated multiple times to account for donor-to-donor variability and the relatively narrow dynamic range.
# Mouse RBCs were isolated fresh from whole blood using a Ficoll gradient and assayed with methods similar to those used in the human RBCs assays.
# healthy volunteers [5] = experiment: Phase 1 multiple ascending dose (MAD) cohorts, 14 days; format: in vivo, human
# From the text: as §1, §2
# In the MAD cohorts, the subjects' blood 2,3-DPG levels were measured periodically after dosing by a qualified LC-MS/MS method for the quantitation of 2,3-DPG in blood. The maximum decrease in 2,3-DPG on Day 14 was 55% from baseline (median). […] Table 16 reports the median percentage change in 2,3-DPG blood levels, relative to baseline, measured over time after the first dose on days 1 and 14 in healthy volunteers who received daily doses of Compound 1 (100 mg BID, 200 mg BID, or 300 mg BID) or placebo for 14 days. Accordingly, the median reduction in the concentration of 2,3-DPG, relative to baseline, was at least about 25% at all dose levels tested 24 hours after administration of the first dose on day 1 and at least about 40% at all dose levels tested 24 hours after administration of the first dose on day 14.
# In the MAD cohorts, the subjects' P50 (PO2 at 50% hemoglobin saturation) were determined on day 14. P50 values measured after 14 days of twice daily dosing were reduced at all dose levels tested (median reduction ranged from −3-5 mmHg). Table 17 reports the mean absolute change in P50, relative to baseline, measured on day 14 in healthy volunteers who received daily doses of Compound 1 (100 mg BID, 200 mg BID, or 300 mg BID) or placebo for 14 days.
# In the MAD cohorts, the subjects' blood ATP levels were measured on day 14 by a qualified LC-MS/MS method for the quantitation of ATP in blood. […] Table 18 reports the median percentage change in blood ATP levels, relative to baseline, measured over time after the first dose on day 14 in healthy volunteers who received daily doses of Compound 1 (100 mg BID, or 200 mg BID) or placebo for 14 days.
# as §3
# PKR-R510Q [6] = molecular target: T1, PKR-R510Q; experiment: Enzyme assay: effect on Vmax and PEP Km, PKR-R510Q; format: biochemical; details: 2 μM Compound 1; for Vmax: PKR R510Q, normalized to 1.00 relative to other values in the row
# Experimental: (§5) Tests were conducted in the presence and absence of fructose-1,6-bisphosphate (FBP), a known allosteric activator of PKR.
# wt-PKR [7] = molecular target: T2, wt-PKR; experiment: Enzyme assay: effect on Vmax and PEP Km, wt-PKR; format: biochemical; details: 2 μM Compound 1; for Vmax: WT-PKR, normalized to 1.00 relative to other values in the row
# Experimental: as §5
# wt-PKR [8] = molecular target: T2, wt-PKR; experiment: PKR activation in mature human erythrocytes ex vivo (Biovision Pyruvate Kinase Assay); format: cell-based; design: evaluated in purified RBCs purchased from Research Blood Components; host or cells: purified mature human erythrocytes from donors; details: human RBCs, 3 hr treatment
# Experimental: as §4
# [9] = SAD, all doses and timepoints, N = 24
# [10] = MAD, all doses and timepoints, N = 36
# T1 sequence (P30613 whole entry R510Q): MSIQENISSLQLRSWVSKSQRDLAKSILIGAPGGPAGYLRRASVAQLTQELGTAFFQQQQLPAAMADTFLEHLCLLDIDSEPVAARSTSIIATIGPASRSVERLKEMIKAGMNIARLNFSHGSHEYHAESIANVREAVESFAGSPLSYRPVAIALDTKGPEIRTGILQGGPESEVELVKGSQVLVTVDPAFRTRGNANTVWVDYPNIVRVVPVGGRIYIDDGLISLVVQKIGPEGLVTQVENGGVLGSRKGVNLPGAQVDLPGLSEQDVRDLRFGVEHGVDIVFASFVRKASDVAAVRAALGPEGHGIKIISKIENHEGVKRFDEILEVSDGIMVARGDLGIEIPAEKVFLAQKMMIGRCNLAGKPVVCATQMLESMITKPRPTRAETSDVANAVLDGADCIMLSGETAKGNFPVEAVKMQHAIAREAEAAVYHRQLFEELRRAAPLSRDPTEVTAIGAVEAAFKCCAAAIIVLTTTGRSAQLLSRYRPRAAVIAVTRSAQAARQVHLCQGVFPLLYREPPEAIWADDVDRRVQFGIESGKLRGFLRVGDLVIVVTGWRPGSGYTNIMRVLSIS
# T3 sequence (P53657 whole entry): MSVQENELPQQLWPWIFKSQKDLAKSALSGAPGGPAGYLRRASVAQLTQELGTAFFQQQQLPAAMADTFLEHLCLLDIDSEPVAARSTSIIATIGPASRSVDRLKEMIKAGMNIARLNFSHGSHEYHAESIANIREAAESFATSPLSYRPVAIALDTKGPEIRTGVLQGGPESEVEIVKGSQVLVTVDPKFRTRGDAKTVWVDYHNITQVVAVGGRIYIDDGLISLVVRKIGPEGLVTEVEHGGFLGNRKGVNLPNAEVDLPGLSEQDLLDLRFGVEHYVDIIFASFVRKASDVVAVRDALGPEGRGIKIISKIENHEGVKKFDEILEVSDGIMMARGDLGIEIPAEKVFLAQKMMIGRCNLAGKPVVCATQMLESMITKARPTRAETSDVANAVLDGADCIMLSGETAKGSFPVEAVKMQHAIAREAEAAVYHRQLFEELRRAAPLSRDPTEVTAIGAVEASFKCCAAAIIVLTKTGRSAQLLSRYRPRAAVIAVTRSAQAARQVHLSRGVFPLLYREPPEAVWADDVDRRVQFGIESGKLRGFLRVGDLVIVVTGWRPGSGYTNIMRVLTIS
# T2 sequence (P30613 whole entry): as the sequence (P30613 whole entry R510Q) above, with Q510R counted along it
structure (smiles),measurement,setting,value
"O=C([C@H](CO)c1ccccc1)N1CC2=C(C1)CN(S(=O)(=O)c1cnc3c(c1)OCCO3)C2 (single isomer, unassigned) [Compound 1]",Maximum-fold Activation,PKR-R510Q [1],<3.0 fold
same,"Time of maximum decrease in 2,3-DPG levels after the first dose",healthy volunteers [2]; SAD cohorts,~24 h
same,Serious adverse events / AEs leading to withdrawal,healthy volunteers [2]; SAD cohorts 200-1000 mg,No serious adverse events (SAEs) or AEs leading to withdrawal were reported
same,"2,3-DPG, Mean Maximum Percent Change from Baseline",healthy volunteers [2]; [9],−46.8%
same,"ATP, Mean Maximum Percent Change from Baseline",healthy volunteers [2]; [9],24.4%
same,"Median reduction in the concentration of 2,3-DPG relative to baseline","healthy volunteers [2]; all dose levels, 24 hours after single dose",at least 30%
same,Single dose exposure versus dose,healthy volunteers [2]; doses ≥700 mg,increased in greater than dose-proportional manner
same,"Time of pharmacodynamic maximum (minimum of 2,3-DPG concentration)",healthy volunteers [2]; single dose 400 mg,~24 h
same,Time of pharmacokinetic maximum (maximum of the PK curve),healthy volunteers [2]; single dose 400 mg,1 to 2 h
same,Maximum-fold Activation,wt-PKR [3],<2.0 fold
same,AC50,PKR-R510Q [4],≤ 100 nM
same,Exposure versus dose,"Balb/c mice; mice, oral",increased in a dose-proportional manner
same,Adverse clinical signs,"Balb/c mice; oral QD×7, both studies",No adverse clinical signs were observed
same,Body weight change,"Balb/c mice; oral QD×7, both studies",no differences in body weight change compared with the vehicle group
same,Tolerability,"Balb/c mice; oral QD×7, up to 240 mg/kg, both studies",well tolerated up to the highest dose tested
same,Level of reticulocytes,Berkeley SS mouse,reduced
same,Oxygen affinity to Hgb under hypoxic conditions,Berkeley SS mouse,increased
same,Percentage of RBCs that sickled at low oxygen pressures,Berkeley SS mouse,decreased
same,Time to sickle,Berkeley SS mouse,increased
same,P50,Berkeley SS mouse; hypoxic conditions,decreased
same,"Max − Min (%), Mean",PKR; mean of replicates,<100%
same,Max − Min (%),PKR; single replicates,<50% and <100%
same,"PK linearity, multiple doses","healthy volunteers [5]; 100-300 mg BID, 400 mg QD",linear PK was observed across all dose levels
same,Serious adverse events / AEs leading to withdrawal,"healthy volunteers [5]; MAD cohorts 200-600 mg total daily, 14 days",No serious adverse events (SAEs) or AEs leading to withdrawal were reported
same,"2,3-DPG, Mean Maximum Percent Change from Baseline",healthy volunteers [5]; [10],−56.3%
same,"ATP, Mean Maximum Percent Change from Baseline",healthy volunteers [5]; [10],68.5%
same,Median reduction of P50,"healthy volunteers [5]; after 14 days of twice daily dosing, all dose levels",−3-5 mmHg
same,Blood ATP levels relative to baseline,"healthy volunteers [5]; day 14, remained so 60 hours after the last dose",elevated
same,"Exposure over time, multiple doses",healthy volunteers [5]; up to day 14,"remained steady up to day 14, without cumulative effect"
same,Vmax,PKR-R510Q [6]; 30 μM FBP,1.29
same,Vmax,PKR-R510Q [6]; No FBP,1.56
same,Effect on Vmax,PKR-R510Q [6]; PKR-R510Q,no effect to a modest increase
same,Reduction of PEP Km,"PKR-R510Q [6]; PKR-R510Q, presence or absence of FBP",~2 fold
same,Vmax,wt-PKR [7]; 30 μM FBP,1.16
same,Vmax,wt-PKR [7]; No FBP,1.14
same,Effect on Vmax,wt-PKR [7]; wt-PKR,no effect to a modest increase
same,Reduction of PEP Km,"wt-PKR [7]; wt-PKR, presence or absence of FBP",~2 fold
same,EC50,wt-PKR [8]; mean of replicates,< 125 nM
same,Max − Min (%),wt-PKR [8]; single replicates,<125% and <150% and <100% and <50%
